Read-outs that look alike come from different tables or passages of the source. Marks after values point to notes of the source that are not given here.
Assays:
[1] = system: patients with advanced solid tumors; details: cited from earlier work
[2] = system: Stage II-IV locally advanced or metastatic pancreatic cancer; assay: Phase II randomized trial: overall survival, PFS, response (RECIST v 1.1); format: in vivo, human
Text: Adult patients who had given informed consent had adequate hematological, liver, and renal functions; histological or cytological evidence of a diagnosis of Stage II or III adenocarcinoma of the pancreas not amenable to resection with curative intent or Stage IV disease; and an Eastern Cooperative Oncology Group performance status (ECOG PS) 0–2. Patients with previous radical surgery for pancreatic cancer were eligible after progression was documented.
(§1) Prior to enrollment, the study protocol, patient informed consent, and any other written study documentation were approved by an ethics committee. This trial was conducted in accordance with the Declaration of Helsinki and the Good Clinical Practice Guidelines of the International Conference on Harmonization. Phase II of this open-label, multicenter, randomized, 2-arm, Phase I/II trial was conducted in patients with locally advanced or metastatic pancreatic cancer. […] Patients continued on treatment until disease progression, unacceptable toxicity, or patient unwillingness to participate.
In addition to the Bayesian model, frequentist analysis of OS was also performed as a sensitivity analysis. The definition of secondary efficacy variables was consistent with standard conventions per RECIST (v 1.1).

[3] = system: patients with locally advanced or metastatic pancreatic cancer; assay: Safety: treatment-emergent adverse events graded by CTCAE v 3.0; format: in vivo, human
Protocol: as §1
All patients who received at least one dose of study drug were evaluated for safety and toxicity. AE severity was graded using the Common Terminology Criteria for AEs (CTCAE) v 3.0.

[4] = system: carbohydrate antigen 19–9 (CA19-9); assay: CA19-9 biomarker response; format: in vivo, human; details: patients with baseline CA19-9 > upper limit of normal
Text: Exploratory analyses included: change from baseline in tumor size and carbohydrate antigen 19–9 (CA19-9) levels, and changes in QTcF from electrocardiograms (ECG) obtained at baseline and after LY2603618 administration on days 2 and 16 during cycle one. […] A sample for CA–19–9 analysis was collected at the start of each cycle.

[5] = system: genomic DNA; assay: Nucleoside analog DNA incorporation assay (gemcitabine/dFdC in genomic DNA); format: in vivo, human
[6] = system: patients with locally advanced or metastatic pancreatic cancer; assay: Patient disposition and treatment exposure; format: in vivo
Protocol: as §1
The first patient was enrolled on 26 February 2009.

[7] = system: metastatic pancreatic adenocarcinoma; design: method as in PMID 21969517; details: MPACT; cited from earlier work
[8] = LY2603618 plasma pharmacokinetics, noncompartmental analysis; format: in vivo, human; details: for Cmax / AUC(0-inf) / AUC(0-t) / clearance / Vd / half-life: 230 mg; for Cmax: read-out: Cmax, Geometric Mean (CV%); for AUC(0-inf): read-out: AUC(0-∞), Geometric Mean (CV%); for AUC(0-t): read-out: AUC(0–24), Geometric Mean (CV%); for clearance: read-out: CL, Geometric Mean (CV%) (converted); for Vd: read-out: Vss, Geometric Mean (CV%); for half-life: read-out: t1/2, Geometric Mean (CV%) (converted)
Protocol: LY2603618 concentrations were quantified using a validated high-pressure liquid chromatography/mass spectrometry/mass spectrometry method. Whole blood samples were collected following the LY2603618 infusion on days 2 and 16 of cycle 1 before the start (<10 min) of infusion; immediately prior to the end of infusion (<5 min); and at 1, 3, and 24 h after the end of infusion. LY2603618 PK parameters were computed from the plasma concentration versus time data by standard noncompartmental analyses (Phoenix WinNonlin version 6.3, Pharsight, A Certara Company®; Princeton, NJ, USA).

[9] = system: Fridericia’s heart rate-corrected QT interval (QTcF); assay: Exploratory QTcF assessment from electrocardiograms; format: in vivo, human; details: ECG at baseline and after LY2603618 on days 2 and 16 of cycle one
Text: Exploratory analyses included: change from baseline in tumor size and carbohydrate antigen 19–9 (CA19-9) levels, and changes in QTcF from electrocardiograms (ECG) obtained at baseline and after LY2603618 administration on days 2 and 16 during cycle one.

[10] = system: HT-29 xenograft models; design: method as in data on file; details: nonclinical HT-29 xenograft models; ref data on file; cited from earlier work
[11] = system: patients with solid tumors; design: method as in PMID 27598338; details: in combination with gemcitabine; cited from earlier work
[12] = study drug-related TEAE, any grade
[13] = 230 mg LY2603618, Cycle 1 Day 2
[14] = 230 mg LY2603618, Cycle 1 Day 16
[15] = 230 mg LY2603618, days 2 and 16 of cycle 1
[16] = human, plasma, intravenous, 230 mg LY2603618, Cycle 1 Day 2
[17] = human, plasma, intravenous, 230 mg LY2603618, Cycle 1 Day 16

SMILES: NC(=O)Nc1cc(-c2cccc(F)c2)sc1C(=O)N[C@H]1CCCNC1 [AZD7762]
- Toxicity observed in Phase 1 study [1]: unpredictable cardiac toxicity was observed

SMILES: Nc1ccn([C@@H]2O[C@H](CO)[C@@H](O)C2(F)F)c(=O)n1 [Gemcitabine, gemcitabine]
- Median overall survival (OS) ([2]; ITT population, frequentist analysis): 8.3 months
- Best Overall Response: CR ([2]; in vivo): 0 n (%; 95% CI)
- Best Overall Response: PR ([2]; in vivo): 3 (8.8%; 1.9–23.7) n (%; 95% CI)
- Best Overall Response: SD ([2]; in vivo): 19 (55.9%; 37.9–72.8) n (%; 95% CI)
- Clinical Benefit Rate ([2]; in vivo): 22 (64.7%; 46.5–80.3) n (%; 95% CI)
- Clinical benefit rate ([2]; in vivo): 64.7%
- Duration of response, Median (range) ([2]; in vivo): 6.0 (3.7–6.8) mos.
- Percentage of patients with partial response (PR) ([2]; in vivo): 8.8%
- Events leading to discontinuation that were possibly related to treatment ([3]; among patients who discontinued due to AEs): four
- Study drug-related treatment-emergent AEs (TEAEs), patients ([3]; any grade): 91.2%
- Patients with ≥1 TEAE (study drug-related) ([3]; any grade, safety population): 31 (91.2) n (%)
- Patients who discontinued the study due to AEs ([3]; in vivo): 6 n
- Serious adverse events (SAE) related to study treatment, patients ([3]; in vivo): 23.5%
- Alopecia [3, 12]: 4 (11.8) n (%)
- Anemia [3, 12]: 9 (26.5) n (%)
- Asthenia [3, 12]: 5 (14.7) n (%)
- Constipation [3, 12]: 3 (8.8) n (%)
- Decreased appetite [3, 12]: 3 (8.8) n (%)
- Diarrhea [3, 12]: 3 (8.8) n (%)
- Fatigue [3, 12]: 10 (29.4) n (%)
- Leukopenia [3, 12]: 5 (14.7) n (%)
- Nausea [3, 12]: 8 (23.5) n (%)
- Neutropenia [3, 12]: 9 (26.5) n (%)
- Oedema peripheral [3, 12]: 2 (5.9) n (%)
- Patients who experienced anemia [3, 12]: 26.5%
- Pyrexia [3, 12]: 5 (14.7) n (%)
- Stomatitis [3, 12]: 1 (2.9) n (%)
- Thrombocytopenia [3, 12]: 14 (41.2) n (%)
- Vomiting [3, 12]: 3 (8.8) n (%)
- Decreased hemoglobin ([3]; study drug-related, Grade 3): 4 (11.8) n (%)
- Decreased leukocytes ([3]; study drug-related, Grade 3): 1 (2.9) n (%)
- Decreased platelets ([3]; study drug-related, Grade 3): 3 (8.8) n (%)
- Dehydration ([3]; study drug-related, Grade 3): 2 (5.9) n (%)
- Fatigue ([3]; study drug-related, Grade 3): 3 (8.8) n (%)
- Hyponatremia ([3]; study drug-related, Grade 3): 2 (5.9) n (%)
- Patients with ≥1 TEAE ([3]; study drug-related, Grade 3): 19 (55.9) n (%)
- Thrombotic microangiopathy ([3]; study drug-related, Grade 3): 2 (5.9) n (%)
- Decreased hemoglobin ([3]; study drug-related, Grade 4): 0 n (%)
- Decreased leukocytes ([3]; study drug-related, Grade 4): 1 (2.9) n (%)
- Decreased platelets ([3]; study drug-related, Grade 4): 1 (2.9) n (%)
- Dehydration ([3]; study drug-related, Grade 4): 0 n (%)
- Fatigue ([3]; study drug-related, Grade 4): 0 n (%)
- Hyponatremia ([3]; study drug-related, Grade 4): 0 n (%)
- Patients with ≥1 TEAE ([3]; study drug-related, Grade 4): 3 (8.8) n (%)
- Thrombotic microangiopathy ([3]; study drug-related, Grade 4): 0 n (%)
- Patients with >50% reduction from baseline in CA19-9 levels [4]: 64%
- dFdC levels incorporated into DNA over the treatment cycle ([5]; following gemcitabine administration): declining to almost baseline by the end of each treatment cycle
- Study discontinuation due to death ([6]; ITT population): 2.9%
- Study discontinuation due to progressive disease ([6]; ITT population): 61.8%
- Study discontinuation due to AE ([6]; human, in vivo): 17.6%
- Median OS [7]: 6.7 months

SMILES: Cc1cnc(NC(=O)Nc2cc(Br)c(C)cc2OC[C@@H]2CNCCO2)cn1 [LY2603618]
- Effect of the addition of LY2603618 on the safety profile of gemcitabine ([3]; in vivo): did not significantly change the safety profile of gemcitabine
- AUC(tlast-∞), Geometric Mean (CV%) [8, 13]: 14.3 (131) ^d %
- Cav,24, Geometric Mean (CV%) [8, 13]: 966 (68) ^d ng/mL
- AUC(tlast-∞), Geometric Mean (CV%) [8, 14]: 12.0 (152) ^e %
- Cav,24, Geometric Mean (CV%) [8, 14]: 987 (60) ^e ng/mL
- tmax, Median (range) [8, 14]: 1.00 (0.88–1.83) h
- Individual PK profiles above the target for AUC(0-∞) (≥21,000 ng hr/mL) [8, 15]: 73%
- Individual PK profiles above the target for Cmax (≥2000 ng/mL) [8, 15]: 87%
- Cmax ([8]; human, plasma, intravenous, 230 mg LY2603618 1-h infusion ~24 h after gemcitabine, Cycle 1 Day 2): 3170 ng/mL
- AUC(0-inf) [8, 16]: 29400 ng·h/mL
- AUC(0-t) [8, 16]: 23200 ng·h/mL
- clearance [8, 16]: 130 mL/min
- Vd [8, 16]: 104 L
- half-life [8, 16]: 9.67 h
- AUC(0-inf) [8, 17]: 29100 ng·h/mL
- AUC(0-t) [8, 17]: 23700 ng·h/mL
- clearance [8, 17]: 131 mL/min
- Cmax [8, 17]: 3410 ng/mL
- Vd [8, 17]: 95.1 L
- half-life [8, 17]: 8.86 h
- Tmax ([8]; human, plasma, intravenous, 230 mg LY2603618, Cycle 1 Day 2, read-out: tmax, Median (range)): 1 h
- Patients with change in QTcF from baseline >60 msec [9]: no patients
- Patients with change in QTcF from baseline between 30 and 60 msec [9]: Five
- Trends in ECG parameter changes (time-point QTcF assessment) [9]: no clinically significant trends
- Relation of increases in dFdC incorporation into DNA to LY2603618 dose ([5]; in vivo): did not correspond to increasing doses of LY2603618
- Plasma systemic exposure target AUC(0-∞) that correlates with maximal pharmacodynamic effect [10]: ≥ 21,000 ng hr/mL
- Plasma systemic exposure target Cmax that correlates with maximal pharmacodynamic effect [10]: ≥ 2000 ng/mL
- Recommended Phase II dose [11]: 230 mg

Source: article PMC5312529 (BMC Cancer, 2017)
